From patent US6821967B2, “Substituted piperazine derivatives, the preparation thereof and their use as medicaments” (Boehringer Ingelheim Pharma KG, priority 1999, dated 2004) come the findings set out here.

Each structure is given as a SMILES string.

`O=C(NCC(F)(F)F)C1(CCCCN2CCN(c3nc4ccccc4o3)CC2)c2ccccc2-c2ccccc21` [Example 2, 9-[4-(4-(benzoxazol-2-yl)-piperazin-1-yl)-butyl]-9H-fluorene-9-carboxylic acid-(2,2,2-trifluoro-ethyl)-amide]: the melting point (usually the temperature of the solid-liquid transition) came to 128 °C.

Molecule `O=C(NCC(F)(F)F)C1(CCCCN2CCN(c3ccc4ccccc4n3)CC2)c2ccccc2-c2ccccc21` [Example 3, 9-[4-(4-(quinolin-2-yl)-piperazin-1-yl)-butyl]-9H-fluorene-9-carboxylic acid-(2,2,2-trifluoro-ethyl)-amide] returned a melting point of 56 to 57 °C.

`CCn1c(N2CCN(CCCCC3(C(=O)NCC(F)(F)F)c4ccccc4-c4ccccc43)CC2)nc2ccccc21` [Example 11, 9-{4-[4-(1-ethyl-1H-benzimidazol-2-yl)-piperazin-1-yl]-butyl}-9H-fluorene-9-carboxylic acid-(2,2,2-trifluoro-ethyl)-amide] came in with a melting point of 55 °C.

`O=C(NCC(F)(F)F)C1(CCCCN2CCN(c3nc4ccccc4n3Cc3ccccc3)CC2)c2ccccc2-c2ccccc21` [Example 13, 9-{4-[4-(1-benzyl-1H-benzimidazol-2-yl)-piperazin-1-yl]-butyl}-9H-fluorene-9-carboxylic acid-(2,2,2-trifluoro-ethyl)-amide] yielded a melting point of 60 °C.

`Cn1c(N2CCN(CCCCC3(C(=O)NCC(F)(F)F)c4ccccc4-c4ccccc43)CC2)nc2cccnc21` [Example 15, 9-{4-[4-(3-methyl-3H-imidazo[4,5]pyridin-2-yl)-piperazin-1-yl]-butyl}-9H-fluorene-9-carboxylic acid-(2,2,2-trifluoro-ethyl)-amide] registered a melting point of 60 °C.

The molecule `Cn1c(N2CCN(CCCCC3(C(=O)NCC(F)(F)F)c4ccccc4-c4ccccc43)CC2)nc2ccc(F)cc21` [Example 17, 9-{4-[4-(6-fluoro-1-methyl-1H-benzimidazol-2-yl)-piperazin-1-yl]-butyl}-9H-fluorene-9-carboxylic acid-(2,2,2-trifluoro-ethyl)-amide] had a melting point of 54 °C.

In turn, `Cn1c(N2CCN(CCCCC3(C(=O)NCC(F)(F)F)c4ccccc4-c4ccccc43)CC2)nc2cc(F)ccc21` [Example 18, 9-{4-[4-(5-fluoro-1-methyl-1H-benzimidazol-2-yl)-piperazin-1-yl]-butyl}-9H-fluorene-9-carboxylic acid-(2,2,2-trifluoro-ethyl)-amide] returned a melting point of 59 °C.

In turn, `Cn1c(N2CCN(CCCCC3(C(=O)NCC(F)(F)F)c4ccccc4-c4ccccc43)CC2)nc2cc(Cl)ccc21` [Example 19, 9-{4-[4-(5-chloro-1-methyl-1H-benzimidazol-2-yl)-piperazin-1-yl]-butyl}-9H-fluorene-9-carboxylic acid-(2,2,2-trifluoro-ethyl)-amide] returned a melting point of 155 °C.

Molecule `COc1cccc2c1nc(N1CCN(CCCCC3(C(=O)NCC(F)(F)F)c4ccccc4-c4ccccc43)CC1)n2C` [Example 20, 9-{4-[4-(4-methoxy-1-methyl-1H-benzimidazol-2-yl)-piperazin-1-yl]-butyl}-9H-fluorene-9-carboxylic acid-(2,2,2-trifluoro-ethyl)-amide] gave a melting point of 146 °C.

Molecule `O=C(NCC(F)(F)F)C1(CCCCN2CCN(c3cnc4ccccc4n3)CC2)c2ccccc2-c2ccccc21` [Example 22, 9-[4-(4-quinoxalin-2-yl-piperazin-1-yl)-butyl]-9H-fluorene-9-carboxylic acid-(2,2,2-trifluoro-ethyl)-amide] came in with a melting point of 142 to 145 °C.

On to `O=C(NCC(F)(F)F)C1(CCCCN2CCN(c3cnc4c(Cl)cccc4n3)CC2)c2ccccc2-c2ccccc21` [Example 23, 9-{4-[4-(5-chloro-quinoxalin-2-yl)-piperazin-1-yl]-butyl}-9H-fluorene-9-carboxylic acid-(2,2,2-trifluoro-ethyl)-amide], for which the melting point is 74 °C.

Molecule `O=C(NCC(F)(F)F)C1(CCCCN2CCN(c3nc4ccc(Cl)cc4s3)CC2)c2ccccc2-c2ccccc21` [Example 24, 9-{4-[4-(6-chloro-benzothiazol-2-yl)-piperazin-1-yl]-butyl}-9H-fluorene-9-carboxylic acid-(2,2,2-trifluoro-ethyl)-amide] returned a melting point of 187 °C.

`O=C(NCC(F)(F)F)C1(CCCCN2CCN(c3cc(-c4ccccc4)c4ccccc4n3)CC2)c2ccccc2-c2ccccc21` [Example 25, 9-{4-[4-(4-phenyl-quinolin-2-yl)-piperazin-1-yl]-butyl}-9H-fluorene-9-carboxylic acid-(2,2,2-trifluoro-ethyl)-amide]: the melting point is 105 °C.

The molecule `O=C(NCC(F)(F)F)C1(CCCCN2CCN(c3ccc4ccc(Cl)cc4n3)CC2)c2ccccc2-c2ccccc21` [Example 26, 9-{4-[4-(7-chloro-quinolin-2-yl)-piperazin-1-yl]-butyl}-9H-fluorene-9-carboxylic acid-(2,2,2-trifluoro-ethyl)-amide] yielded a melting point of 146 to 148 °C.

Consider `O=C(NCC(F)(F)F)C1(CCCCN2CCN(c3ccc4c(Cl)cccc4n3)CC2)c2ccccc2-c2ccccc21` [Example 27, 9-{4-[4-(5-chloro-quinolin-2-yl)-piperazin-1-yl]-butyl}-9H-fluorene-9-carboxylic acid-(2,2,2-trifluoro-ethyl)-amide], for which the melting point fell in the range of 142 to 143 °C.

As for `O=C(NCC(F)(F)F)C1(CCCCN2CCN(c3ccc4cc(Cl)ccc4n3)CC2)c2ccccc2-c2ccccc21` [Example 28, 9-{4-[4-(6-chloro-quinolin-2-yl)-piperazin-1-yl]-butyl}-9H-fluorene-9-carboxylic acid-(2,2,2-trifluoro-ethyl)-amide], the melting point was 151 °C.

Molecule `O=C(NCC(F)(F)F)C1(CCCCN2CCN(c3ccc4cccc(Cl)c4n3)CC2)c2ccccc2-c2ccccc21` [Example 29, 9-{4-[4-(8-chloro-quinolin-2-yl)-piperazin-1-yl]-butyl}-9H-fluorene-9-carboxylic acid-(2,2,2-trifluoro-ethyl)-amide] had a melting point of 121 °C.

As to `COc1cccc2ccc(N3CCN(CCCCC4(C(=O)NCC(F)(F)F)c5ccccc5-c5ccccc54)CC3)nc12` [Example 30, 9-{4-[4-(8-methoxy-quinolin-2-yl)-piperazin-1-yl]-butyl}-9H-fluorene-9-carboxylic acid-(2,2,2-trifluoro-ethyl)-amide], the melting point was determined as 74 °C.

As for `O=C(NCC(F)(F)F)C1(CCCCN2CCN(c3ccc4cccc(O)c4n3)CC2)c2ccccc2-c2ccccc21` [Example 31, 9-{4-[4-(8-hydroxy-quinolin-2-yl)-piperazin-1-yl]-butyl}-9H-fluorene-9-carboxylic acid-(2,2,2-trifluoro-ethyl)-amide], the melting point amounted to 159 °C.

Regarding `O=C(NCC(F)(F)F)C1(CCCCN2CCN(c3ccc4cccc(Br)c4n3)CC2)c2ccccc2-c2ccccc21` [Example 32, 9-{4-[4-(8-bromo-quinolin-2-yl)-piperazin-1-yl]-butyl}-9H-fluorene-9-carboxylic acid-(2,2,2-trifluoro-ethyl)-amide], the melting point was 66 °C.

Consider `COc1cccc2ccc(N3CCN(CCCCC4(C(=O)NCC(F)(F)F)c5ccccc5-c5ccccc54)CC3)nc12` [Example 36, 9-{4-[4-(8-methoxy-quinolin-2-yl)-piperazin-1-yl]-butyl}-9H-fluorene-9-carboxylic acid-(2,2,2-trifluoro-ethyl)-amide], for which the melting point was found to be 67 °C.

The molecule `C[C@H]1CN(c2ccc3ccccc3n2)CCN1CCCCC1(C(=O)NCC(F)(F)F)c2ccccc2-c2ccccc21` [Example 38, 9-{4-[(S)-2-methyl-4-quinolin-2-yl-piperazin-1-yl]-butyl}-9H-fluorene-9-carboxylic acid-(2,2,2-trifluoro-ethyl)-amide] registered a melting point of 102 °C.

With `C[C@@H]1CN(c2ccc3ccccc3n2)CCN1CCCCC1(C(=O)NCC(F)(F)F)c2ccccc2-c2ccccc21` [Example 39, 9-{4-[(R)-2-methyl-4-quinolin-2-yl-piperazin-1-yl]-butyl}-9H-fluorene-9-carboxylic acid-(2,2,2-trifluoro-ethyl)-amide], the melting point came to 102 °C.

Take `CC1CN(CCCCC2(C(=O)NCC(F)(F)F)c3ccccc3-c3ccccc32)CCN1c1ccc2ccccc2n1` (centres unmarked) [Example 40, 9-{4-[3-methyl-4-quinolin-2-yl-piperazin-1-yl]-butyl}-9H-fluorene-9-carboxylic acid-(2,2,2-trifluoro-ethyl)-amide]: the melting point worked out at 50 °C.

The molecule `C[C@@H]1CN(c2ccc3ccccc3n2)C[C@H](C)N1CCCCC1(C(=O)NCC(F)(F)F)c2ccccc2-c2ccccc21` [Example 42, 9-[4-(cis-2,6-dimethyl-4-quinolin-2-yl-piperazin-1-yl)-butyl]-9H-fluorene-9-carboxylic acid-(2,2,2-trifluoro-ethyl)-amide] gave a melting point of 169 °C.

`C[C@@H]1CN(c2nc3ccccc3n2C)C[C@H](C)N1CCCCC1(C(=O)NCC(F)(F)F)c2ccccc2-c2ccccc21` [Example 43, 9-{4-[cis-2,6-dimethyl-4-(1-methyl-1H-benzimidazol-2-yl)-piperazin-1-yl]-butyl}-9H-fluorene-9-carboxylic acid-(2,2,2-trifluoro-ethyl)-amide]: the melting point worked out at 77 °C.

`C[C@@H]1CN(c2nc3ccccc3s2)C[C@H](C)N1CCCCC1(C(=O)NCC(F)(F)F)c2ccccc2-c2ccccc21` [Example 45, 9-[4-(4-benzothiazole-2-yl-cis-2,6-dimethyl-piperazin-1-yl)-butyl]-9H-fluorene-9-carboxylic acid-(2,2,2-trifluoro-ethyl)-amide]: the melting point was in the range of 163 to 165 °C.

In turn, `C[C@@H]1CN(c2nc3ccccc3o2)C[C@H](C)N1CCCCC1(C(=O)NCC(F)(F)F)c2ccccc2-c2ccccc21` [Example 46, 9-[4-(4-benzoxazol-2-yl-cis-2,6-dimethyl-piperazin-1-yl)-butyl]-9H-fluorene-9-carboxylic acid-(2,2,2-trifluoro-ethyl)-amide] returned a melting point of 163 to 165 °C.

With `C[C@@H]1CN(c2ncc3ccccc3n2)C[C@H](C)N1CCCCC1(C(=O)NCC(F)(F)F)c2ccccc2-c2ccccc21` [Example 47, 9-[4-(cis-2,6-dimethyl-4-quinazolin-2-yl-piperazin-1-yl)-butyl]-9H-fluorene-9-carboxylic acid-(2,2,2-trifluoro-ethyl)-amide], the melting point stood at 174 °C.
